How the values were obtained:
RAD54 = target: T1, RAD54 (Homo sapiens, UniProt Q92698); experiment: biolayer interferometry (His-RAD54 immobilized); tryptophan fluorescence quenching; format: binding
T1 construct: gene RAD54L; His-RAD54
T1 sequence (Q92698 1-747): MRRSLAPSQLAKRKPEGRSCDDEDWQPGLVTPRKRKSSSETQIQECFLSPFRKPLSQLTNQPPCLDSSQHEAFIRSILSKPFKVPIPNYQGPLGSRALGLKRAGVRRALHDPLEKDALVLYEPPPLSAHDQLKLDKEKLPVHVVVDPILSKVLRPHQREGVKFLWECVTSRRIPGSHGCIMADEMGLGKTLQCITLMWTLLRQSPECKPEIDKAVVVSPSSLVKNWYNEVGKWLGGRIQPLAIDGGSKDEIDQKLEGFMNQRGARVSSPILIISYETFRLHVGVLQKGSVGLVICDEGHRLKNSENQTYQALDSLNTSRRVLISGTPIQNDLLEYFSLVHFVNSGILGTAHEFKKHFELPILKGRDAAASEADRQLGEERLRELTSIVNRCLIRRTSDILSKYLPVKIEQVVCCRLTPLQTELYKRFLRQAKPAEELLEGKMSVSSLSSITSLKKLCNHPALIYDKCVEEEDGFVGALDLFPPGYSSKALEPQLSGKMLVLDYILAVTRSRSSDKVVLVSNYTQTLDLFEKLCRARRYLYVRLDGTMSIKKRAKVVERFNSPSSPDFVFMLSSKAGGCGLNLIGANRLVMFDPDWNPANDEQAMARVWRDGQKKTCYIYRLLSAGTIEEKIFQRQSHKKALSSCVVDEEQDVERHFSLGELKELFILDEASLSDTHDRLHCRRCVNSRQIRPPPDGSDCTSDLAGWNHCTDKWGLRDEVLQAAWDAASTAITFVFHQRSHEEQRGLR

[1] = target: His-RAD54 WT (full-length recombinant RAD54) (UniProt Q92698); experiment: BLI; Octet; His-RAD54 WT immobilized onto Ni-NTA sensor, different concentrations of biotin BLM_peptide

| Compound | Kd (RAD54) | Kd [1] |
| --- | --- | --- |
| CC(=O)Nc1nnc(S(N)(=O)=O)s1 [C3, acetazolamide] | 55.8 µM |  |
| biotinylated BLM (aa 181–212) peptide |  | 0.0108 µM |

From paper PMC11014671, “Small molecules that disrupt RAD54-BLM interaction hamper tumor proliferation in colon cancer chemoresistance models” (The Journal of Clinical Investigation, 2024)
